The subject of experiment [1] is DLBCL cells with a MYCC rearrangement. The experiment is described as follows: Apoptosis assay (Annexin V/PI staining). In kind it is cell-based, Human. The settings on record: 24 hours post-treatment, FIG. 5A. As for the experimental part: (§1) Cell Culture. Human diffuse large B-cell lymphoma cells, SU-DHL-10, SU-DHL-4, OCI-LY-7 and SU-DHL-2 cells (purchased from Cell Bank, Shanghai Institutes for Biological Sciences, Chinese Academy of Sciences) were cultured in RPMI 1640 (Hyclone™, SH30809.01B) supplemented with 10% fetal bovine serum (GEMINI, 900-108). Cultures were incubated at 37° C., in 5% CO2.
Apoptosis Assay. Apoptosis was detected by Annexin V/PI staining kit (Thermo Fisher) according to the manufacturer's instructions. Briefly, cells were plated at a density of 5×10^5 cells/mL in RPMI 1640 media with 2% FBS with desired concentrations of YM155. At 24 hours post-treatment the cells were harvested and tested for apoptosis by Annexin V and PI staining. Cell analysis was performed using a FACSAria (BD).

For experiment [2], the system named is c-MYC. Briefly: Western blot of c-MYC in DLBCL cells. Type of experiment: cell-based, Human. The following applies: DLBCL cells with a MYCC rearrangement; treated 24 hours; FIG. 5B. As for the experimental part:
as §1
Western blot. SU-DHL-10, OCI-LY-7 and SU-DHL-2 cells were treated with/without YM155 for 24 hours. Cell lysates were prepared in lysis buffer (Thermo Fisher). Protein concentrations were determined using a Bio-Rad protein assay (Bio-Rad). 20 μg protein was loaded in 4%-12% SDS-PAGE (Invitrogen), and transferred to nitrocellulose. Membranes were blocked in 5% BSA (Sigma) for 1 hour, incubated with the primary antibody overnight at 4° C., washed and incubated with the appropriate horseradish-conjugated secondary antibody (1:5000, Cell Signaling Technology) for 1 hour at room temperature. An enhanced chemiluminescent kit (Beyotime Biotechnology) was used to visualize the signal. The following antibodies were used: c-MYC (Abcam) and GAPDH (Beyotime Biotechnology).
Background: Immunoblotting shows a protein as a band on a membrane.

For experiment [3], the system named is prostate, pancreatic, and lung cancer. The following applies: cited from earlier work.
In experiment [4] the test system is survivin. The following applies: Minematsu et al. 2008; cited from earlier work.
The subject of experiment [5] is DLBCL with a MYCC rearrangement. The experiment is described as follows: CDX mouse model of DLBCL with a MYCC rearrangement. Type of experiment: in vivo, BALB/C-nu mice. The method, then:
(§2) Tumor Xenograft models (CDX models). BALB/C-nu mice (6-8 weeks, SPF Biotechnology Co., Ltd) were inoculated by s.c. injection of tumor cell (SU-DHL-10, SU-DHL-4 or OCI-LY-7) suspension containing Matrigel (Corning)/PBS at a ratio of 1:1. 1×10^7 cells were inoculated. When tumors reached 150-200 mm^3, treatment was initiated. Tumor growth was monitored twice a week. Tumor volume was calculated by applying the following equation: tumor volume=½(length×width^2).

For experiment [6], the system named is DLBCL with a MYCC rearrangement and BCL2 expression (MYCC/BCL2 associated lymphoma). The experiment is described as follows: CDX mouse model of DLBCL with a MYCC rearrangement and BCL2 expression. Type of experiment: in vivo, BALB/C-nu mice. The settings on record: FIG. 8; alone and in combination with BCL2 inhibitor (ABT199). As for the experimental part: as §2

In experiment [7] the test system is SU-DHL-4 (double hit (MYCC/BCL2), CD20 positive). Briefly: SU-DHL-4 CDX model. In kind it is in vivo, BALB/C-nu mice. The following applies: FIG. 10; b/c-nu; PC-002 5 mg/kg i.p., alone and in combination with CHOP or RCHOP.
Description: CHOP: cyclophosphamide, 40 mg/kg, QW*3, D1, i.v., doxorubicin, 3.3 mg/kg, QW*3, D1, i.v., vincristine, 0.5 mg/kg, QW*3, D1, i.v., prednisone, 0.2 mg/kg, QD*5*3W,D1-5, p.o. RCHOP: rituximab, 25 mg/kg, QW*3, i.p., cyclophosphamide, 40 mg/kg, QW*3, D1, i.v., doxorubicin, 3.3 mg/kg, QW*3, D1, i.v., vincristine, 0.5 mg/kg, QW*3, D1, i.v., prednisone, 0.2 mg/kg, QD*5*3W,D1-5, p.o. PC-002: 5 mg/kg, QD*5*3w, D1-5, i.p.
Experiment [8] relates to SU-DHL-10, OCI-LY-7 and SU-DHL-2 cells. Briefly: Cell proliferation XTT assay in DLBCL cells with or without MYCC rearrangement. Type of experiment: cell-based, Human. The settings on record: DLBCL with a MYCC rearrangement versus without, 72 h incubation, FIG. 4. The method, then:
as §1
Cell Treatment and proliferation assay. SU-DHL-10, OCI-LY-7 and SU-DHL-2 cell were seeded in 96-well plates (Corning-Costar, 3599) at 40000 cells/well in 200 μl culture medium treated with YM155 (50, 25, 12.5, 2.5, 1, 0.5 nM; Apex BIO, A4221) or DMSO (0.1%; Amresco, 67-68-5). After 72 h incubation, cell proliferation was measured by XTT assay (Cell Proliferation Kit II XTT, sigma, 11465015001) according to manufacturer's protocols. Briefly, after YM155 treatment, added to each well 50 μl of the XTT labeling mixture, then incubated the micro-plate for 4 h in a humidified atmosphere. The absorbance of wavelength was determined at 490 nm (OD490) and 650 nm (OD650) respectively by SpectraMax 190. The IC50 was calculated by the value of OD490. OD650.

The mark [9] stands for this setting: FIG. 6, alone and in combination with PARP inhibitor (olaparib).

As to “1-(2-Methoxyethyl)-2-methyl-4,9-dioxo-3-(pyrazin-2-ylmethyl)-4,9-dihydro-1H-naphtho[2,3-d] imidazolium bromide [YM155]”, the “apoptosis of DLBCL cells” value in experiment [1] is “induces apoptosis”. Further, the MYCC expression entry in experiment [2] was “lowers the MYCC expression”. In experiment [3] (Minematsu et al. 2008), the antitumor activity result was “potent antitumor activity”. Further, the “anti-tumor effects in various in vivo cancer models” value in experiment [3] (prostate, pancreatic, and lung cancer, Nakahara et al. 2007, Na et al. 2012) is “exerts anti-tumor effects”. Further, in experiment [4], the survivin expression result is “down-regulation of survivin”. In addition, the “effect on tumor growth” value is on record as “tumor regression” in experiment [5] (setting [9]); “tumor regression” in experiment [5] (FIG. 7, alone and in combination with CHOP); “complete tumor regression” in experiment [6]. Further, the “effect on tumor volume” value is “significant effect on reducing tumor volume” in experiment [5] (FIG. 9, b/c-nu, PC-002 5 mg/kg i.p., alone and in combination with CHOP); “profound effect on reducing tumor volume, essentially eliminating tumor growth” in experiment [7]. The “sensitivity of DLBCL to YM155 (cell proliferation)” value in experiment [8] is recorded as “more sensitive”.
Consider `CC1(C)CCC(CN2CCN(c3ccc(C(=O)NS(=O)(=O)c4ccc(NCC5CCOCC5)c([N+](=O)[O-])c4)c(Oc4cnc5[nH]ccc5c4)c3)CC2)=C(c2ccc(Cl)cc2)C1` [ABT199], for which the “effect on tumor growth” value in experiment [6] was “no significant effect on tumor growth”.
For `O=C(c1cc(Cc2n[nH]c(=O)c3ccccc23)ccc1F)N1CCN(C(=O)C2CC2)CC1` [olaparib], the “effect on tumor growth” value in experiment [5] (setting [9]) was “no significant effect on tumor growth”.

The record behind these values is patent US20230065640A1, “COMBINATION THERAPIES AND BIOMARKERS FOR TREATING B-CELL LYMPHOMAS” (priority 2020, published 2023).
